According to ChEMBL document CHEMBL1146143, “New ligand-based approach for the discovery of antitrypanosomal compounds” (2006):

Key:
Trypanosoma cruzi [1] = experiment: Antitrypanosomal activity against Trypanosoma cruzi epimastigotes at 100 ug/ml; type: functional
Trypanosoma cruzi [2] = experiment: Antitrypanosomal activity against Trypanosoma cruzi epimastigotes at 10 ug/ml; type: functional
Trypanosoma cruzi [3] = experiment: Antitrypanosomal activity against Trypanosoma cruzi epimastigotes at 1 ug/ml; type: functional
J774 [4] = experiment: Unspecific cytotoxicity against murine J774 macrophages at 100 ug/ml; type: functional, Mus musculus
J774 [5] = experiment: Unspecific cytotoxicity against murine J774 macrophages at 10 ug/ml; type: functional, Mus musculus
J774 [6] = experiment: Unspecific cytotoxicity against murine J774 macrophages at 1 ug/ml; type: functional, Mus musculus
Trypanosoma cruzi [7] = experiment: Antitrypanosomal activity against Trypanosoma cruzi amastigotes at 100 ug/ml; type: functional
Mus musculus = experiment: Antitrypanosomal activity against Trypanosoma cruzi infected NMRI mice at 50 mg/kg/day; type: functional
Trypanosoma cruzi [8] = experiment: Antitrypanosomal activity against Trypanosoma cruzi amastigotes at 10 ug/ml; type: functional
Trypanosoma cruzi [9] = experiment: Antitrypanosomal activity against Trypanosoma cruzi amastigotes at 1 ug/ml; type: functional

Compound	Activity (Trypanosoma cruzi [1]) [%]	Activity (Trypanosoma cruzi [2]) [%]	Activity (Trypanosoma cruzi [3]) [%]	Activity (J774 [4]) [%]	Activity (J774 [5]) [%]	Activity (J774 [6]) [%]	Activity (Trypanosoma cruzi [7]) [%]	Activity (Mus musculus) [%]	Activity (Trypanosoma cruzi [8]) [%]	Activity (Trypanosoma cruzi [9]) [%]
CN1CC(=O)N(C)c2cc([N+](=O)[O-])ccc21	72.7	21.6	22.5	0	0	0	85.4	60.7		
O=C1Nc2cc([N+](=O)[O-])ccc2N2CCCCC12 (stereo not given)	77	30.9	3.9	34.2	5.6	2.4				
O=C1Nc2cc([N+](=O)[O-])ccc2N2Cc3ccccc3CC12 (stereo not given)	72.1	29.4	19.4	50.4	0	0				
CN1C(=O)C[N+](C)(C)c2ccc([N+](=O)[O-])cc21.[Cl-]	67.2	9	0.9	64.8	10.5	9.8				
O=C1CN(CCCCCCCl)c2ccc([N+](=O)[O-])cc2N1	90.9	72.1	23.2	97.4	32.9	16.6			100	
O=C(CN1CCCCC1)Nc1cc([N+](=O)[O-])ccc1Cl	11	1.3	21.9							
O=C(CN1CCCCC1)Nc1cc([N+](=O)[O-])ccc1F	14.3	4.4	0							
O=C(CCl)Nc1cc([N+](=O)[O-])ccc1N1CCCCC1	84	34.8	7.1	24.9	6.3	8.1				
O=C1Nc2cc([N+](=O)[O-])ccc2N2CCCC12 (stereo not given)	90.5	70.3	25.6	23.6	0	0	30.2		13.3	
CN1C(=O)CN(CCCCCCl)c2ccc([N+](=O)[O-])cc21	83.3	82.2	15	99.5	17.8	0				
O=C(Cn1ccnc1[N+](=O)[O-])NCc1ccccc1 [BENZNIDAZOLE]				1.4	1.6	1.9	96.6		9.2	83.2
CC1CS(=O)(=O)CCN1/N=C/c1ccc([N+](=O)[O-])o1 (stereo not given) [NIFURTIMOX]	98.7	90	75.5	25.9	0.6	0	100	100	94.4	88.1
